In ChEMBL document CHEMBL1137233, “Synthesis and cardiac effects of 3,4-dihydropyrimidin-2(1H)-one-5 carboxylates” (Bioorg Med Chem Lett, 2006):
Active and inactive are the calls of the source. The rule behind the calls is not given here.

Assays:
Format in all cases: functional
[1] = system: Riparian frogs; assay: Positive inotropic action measured as increase in force of contraction in isolated perfused frog heart at 1 mg/ml; conditions: Hoplobatrachus tigerinus
[2] = system: Riparian frogs; assay: Increase in cardiac output in isolated perfused frog heart at 1 mg/ml; conditions: Hoplobatrachus tigerinus
[3] = system: Riparian frogs; assay: Positive inotropic action measured as increase in force of contraction in isolated perfused frog heart at 500 ug/ml; conditions: Hoplobatrachus tigerinus
[4] = system: Riparian frogs; assay: Increase in cardiac output in isolated perfused frog heart at 500 ug/ml; conditions: Hoplobatrachus tigerinus
[5] = system: Riparian frogs; assay: Effect on cardiac output in isolated perfused frog heart; conditions: Ranidae
[6] = system: Riparian frogs; assay: Effect on force of contraction in isolated perfused frog heart; conditions: Hoplobatrachus tigerinus
[7] = system: Riparian frogs; assay: Effect on rate of contraction in isolated perfused frog heart; conditions: Hoplobatrachus tigerinus
[8] = system: Riparian frogs; assay: Positive inotropic action measured as increase in force of contraction in isolated perfused frog heart; conditions: Hoplobatrachus tigerinus
[9] = system: Riparian frogs; assay: Negative chronotropic action measured as decrease in rate of contraction in isolated perfused frog heart; conditions: Hoplobatrachus tigerinus
[10] = system: Riparian frogs; assay: Increase in cardiac output in isolated perfused frog heart; conditions: Hoplobatrachus tigerinus
[11] = target: Adrenergic receptor beta (Homo sapiens) (UniProt P08588+P07550+P13945); assay: Antagonist activity at adrenergic beta receptor assessed as inhibition of adrenalin effect
[12] = system: Riparian frogs; assay: Negative inotropic action in isolated perfused frog heart; conditions: Hoplobatrachus tigerinus
[13] = system: Riparian frogs; assay: Decrease in cardiac output in isolated perfused frog heart; conditions: Hoplobatrachus tigerinus

SMILES: CCOC(=O)C1=C(C)NC(=O)NC1c1ccc(-c2ccccc2)cc1 (stereo not given)
- Activity [1]: Active
- Activity [2]: Active
- Activity [3]: Active
- Activity [4]: Active

SMILES: CCOC(=O)C1=C(C)NC(=O)NC1c1ccccc1[N+](=O)[O-] (stereo not given)
- Activity [5]: inactive
- Activity [6]: inactive
- Activity [7]: inactive

SMILES: CCOC(=O)C1=C(C)NC(=O)NC1c1cccc(O)c1 (stereo not given)
- Activity [8]: Dose-dependent effect
- Activity [9]: Dose-dependent effect
- Activity [10]: Active

SMILES: COC(=O)C1=C(C)NC(=O)NC1c1ccccc1Cl (stereo not given)
- Activity [11]: Active
- Activity [12]: Active
- Activity [9]: Active
- Activity [13]: Active

SMILES: CCOC(=O)C1=C(C)NC(=O)NC1c1ccc(O)cc1 (stereo not given)
- Activity [8]: Dose-dependent effect
- Activity [9]: Dose-dependent effect
- Activity [10]: Active

SMILES: CCOC(=O)C1=C(C)NC(=O)NC1C(C)C (stereo not given)
- Activity [8]: Dose-dependent effect
- Activity [9]: Dose-dependent effect
- Activity [10]: Active

SMILES: CCOC(=O)C1=C(C)NC(=O)NC1c1ccccc1Cl (stereo not given)
- Activity [11]: Active
- Activity [12]: Active
- Activity [9]: Active
- Activity [13]: Active

SMILES: CC1=C(C(=O)Oc2ccccc2)C(c2cccc(O)c2)NC(=O)N1 (stereo not given)
- Activity [8]: Dose-dependent effect
- Activity [9]: Dose-dependent effect
- Activity [10]: Active

SMILES: CCOC(=O)C1=C(C)NC(=O)NC1c1ccc(OC)cc1 (stereo not given)
- Activity [8]: Active
- Activity [9]: Active
- Activity [10]: Active
